This note sets out measurements from PubChem BioAssay (NCI).

Common to all, as to assay: DTP human tumour cell line panel, 48 h
Assay [1] has as its system NCI-H23 lung.
The test system of assay [2] is MCF7 breast.
In assay [3] the test system is HCC-2998 colon.
Assay [4] concerns OVCAR-5 ovarian.
Assay [5] relates to SK-MEL-5 melanoma.
Assay [6] has as its system TK-10 renal.
Assay [7] has as its system SNB-19 CNS.
Assay [8] has as its system OVCAR-4 ovarian.
The test system of assay [9] is ACHN renal.
In assay [10] the test system is NCI-H226 lung.
The subject of assay [11] is U251 CNS.
Assay [12] concerns UACC-62 melanoma.
The subject of assay [13] is HL-60(TB) leukemia.
Assay [14] relates to UACC-257 melanoma.
The test system of assay [15] is 786-0 renal.
For assay [16], the system named is SR leukemia.
Assay [17] relates to PC-3 prostate.

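Each compound was tested at five concentrations against cells in 96-well plates for 48 hours. Abbreviation: GI50, concentration required for 50% inhibition of growth. Definition used: TGI = concentration required for complete inhibition of growth.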

One may read the TGI as the concentration at which net growth stops. Read a high TGI as less potent growth arrest. Take `CC1=NN(c2nc(N)nc(C/C(N)=N/O)n2)C(C)(C)C1`: the concentration for total growth inhibition (TGI) in assay [1], in assay [2], in assay [3], in [4], in assay [5] and in [6] was greater than 100 µM each time. Further, the TGI in assay [7], in [8], in assay [9], in assay [10], in assay [11] and in [12] was greater than 100 µM each time. Also, the concentration for total growth inhibition (TGI) in assay [13], in assay [14] and in assay [15] was greater than 100 µM throughout.

Consider `CN(C)c1snc2c1c(=O)n(C)c(=O)n2C`, for which the TGI in assay [1], in assay [3], in assay [4], in assay [5], in assay [6] and in assay [7] was greater than 100 µM throughout. Further, the TGI in assay [8], in assay [9], in [10], in [11], in assay [12] and in assay [13] was greater than 100 µM in each case. Moreover, the TGI in assay [14] and in [15] was greater than 100 µM each time.

On to `COc1ccc(NC(=O)C(C)Oc2ccc(OCC3CCCCC3)cc2)cc1` (stereo not drawn), for which the TGI in assay [1] is 68.3 µM; in assay [3], greater than 100 µM; in assay [5], greater than 100 µM; in assay [6] it was greater than 100 µM; in assay [7], greater than 100 µM; in assay [8] it was greater than 100 µM. In addition, the concentration for total growth inhibition (TGI) in [9], in assay [10], in assay [11], in assay [12], in [13] and in assay [14] was greater than 100 µM throughout. Further, the concentration for total growth inhibition (TGI) in [15] was greater than 100 µM.

`C=CCN1/C(=C2\SC(=S)N(c3ccc(C)cc3)C2=O)Sc2c1nc[nH]c2=O`: the concentration for total growth inhibition (TGI) in [1], in assay [4], in [5], in assay [6], in assay [7] and in [8] was greater than 100 µM in each case. The TGI in assay [9], in [10], in assay [11], in assay [12], in assay [13] and in assay [14] was greater than 100 µM throughout. Further, the TGI in [15] is greater than 100 µM.

Turning to `CCOC(OCC)N1C(=O)C2(C(OCC)OCC)CC3C(OC(=O)N3N)c3cccc1c32` (stereo not drawn), the concentration for total growth inhibition (TGI) in assay [1], in [16], in assay [2], in assay [3], in assay [4] and in assay [5] was greater than 100 µM each time. Moreover, the TGI in assay [6], in [7], in assay [8], in assay [9], in assay [10] and in assay [11] was greater than 100 µM each time. The TGI in assay [12], in [13], in [14] and in assay [15] was greater than 100 µM in each case.

As for `CCOC(=O)c1cc(Br)c(-c2cc(C)no2)[nH]1`, the TGI in [1] was greater than 100 µM; in assay [4], greater than 100 µM; in assay [5] it was 47.5 µM; in assay [17], greater than 100 µM; in [6], greater than 100 µM; in [7], greater than 100 µM. The TGI in assay [8] was 63 µM; in assay [9], greater than 100 µM; in assay [10], greater than 100 µM; in assay [11], greater than 100 µM; in [12], greater than 100 µM; in assay [13], 83.6 µM. Further, the total growth inhibition concentration (TGI) in assay [14] and in assay [15] was greater than 100 µM throughout.

For the compound `C#CCN(N=O)C(=O)NCCCCC(NC(C)=O)C(=O)NCc1ccccc1` (stereo not drawn), the total growth inhibition concentration (TGI) in [1], in [16], in [3], in assay [4], in assay [5] and in assay [6] was greater than 100 µM throughout. Also, the concentration for total growth inhibition (TGI) in assay [7], in [8], in assay [9], in assay [10], in [11] and in assay [12] was greater than 100 µM each time. Besides, the TGI in [14] and in [15] was greater than 100 µM throughout.

For the compound `COc1ccc(/C(=C/n2ccnc2)C(O)c2ccc(OC)c(OC)c2)cc1OC` (stereo not drawn), the TGI in assay [1], in [16], in assay [4], in assay [6], in assay [7] and in assay [8] was greater than 100 µM in each case. Further, the total growth inhibition concentration (TGI) in [10], in [11], in assay [13], in assay [14] and in assay [15] was greater than 100 µM throughout.

In the case of `O=C(O)[C@H](Cc1ccccc1)NCCN1CCC[C@H]1C(=O)O`, the concentration for total growth inhibition (TGI) in assay [1], in [2], in [4], in assay [5], in [17] and in assay [7] was greater than 100 µM in each case. The TGI in assay [8], in assay [11], in assay [12] and in [15] was greater than 100 µM in each case.

On to `CC(=O)OCC1OC(O[C@@H]2C[C@H]3C(C)(C)[C@@H](OC(C)=O)CC[C@]3(C)[C@H]3CC[C@]45C[C@]4(CC[C@H]5[C@@H](C)C[C@@H](O)[C@H](O)C(C)(C)F)[C@@]32C)C(O)C(O)C1O` (stereo partly drawn), for which the TGI is 4.56 µM in [1]; greater than 100 µM in assay [2]; greater than 100 µM in [3]; 2.81 µM in [4]; 3.2 µM in assay [5]; 91.5 µM in [17]. Also, the TGI in assay [6] was greater than 100 µM; in assay [7] it was 3.1 µM; in assay [8], greater than 100 µM; in assay [9], greater than 100 µM; in [11], 41.1 µM; in assay [12], greater than 100 µM. The TGI in assay [13] was 2.75 µM; in assay [14], greater than 100 µM; in assay [15], 3.24 µM.

Turning to `CC(C)(C)OC(=O)NCCCC(=O)NC1(c2cc3ccccc3s2)CCCCC1`, the TGI is 51 µM in assay [1]; 27.9 µM in assay [16]; 41 µM in [2]; 48.5 µM in assay [3]; 19.9 µM in assay [5]; 97.2 µM in assay [6]. The total growth inhibition concentration (TGI) in assay [7] is greater than 100 µM; in assay [8], greater than 100 µM; in assay [9] it was 41 µM; in [12] it was 24.3 µM; in [13], 24.8 µM; in assay [14], 31.9 µM. In assay [15], this compound had a TGI of 37.4 µM.

By GI50 is commonly meant the concentration giving 50% growth inhibition. Take `O=c1cc(-c2ccco2)[nH]c2cc3c(cc12)OCO3`: the total growth inhibition concentration (TGI) in [1], in [16], in assay [3], in assay [5], in assay [6] and in assay [7] was greater than 100 µM throughout. For the same compound, the TGI in assay [8], in assay [9], in assay [10], in assay [11], in assay [12] and in assay [13] was greater than 100 µM each time. Also, the concentration for total growth inhibition (TGI) in assay [14] and in assay [15] was greater than 100 µM throughout. Moreover, the GI50 in [5] was 13.4 µM; in [10] it was 24.4 µM.

For the compound `COC(=O)C(Br)C1CCc2ccccc21` (stereo not drawn), the concentration for total growth inhibition (TGI) in assay [1], in assay [16], in [3], in assay [4], in assay [5] and in [6] was greater than 100 µM throughout. The TGI in [7], in assay [8], in assay [9], in [10], in assay [11] and in [12] was greater than 100 µM in each case. The TGI in [13], in [14] and in [15] was greater than 100 µM in each case.

Consider `O=C1c2ccccc2C(=O)C1C(c1ccc(F)cc1)C1C(=O)c2ccccc2C1=O`, for which the TGI in [1], in assay [16], in assay [3], in assay [4], in assay [5] and in assay [6] was greater than 100 µM throughout. Further, the TGI in [7], in assay [8], in [9], in assay [10], in assay [11] and in assay [12] was greater than 100 µM throughout. For the same compound, the TGI in assay [13], in assay [14] and in assay [15] was greater than 100 µM each time.

Consider `Nc1ccc(C23CC4CC(C2)CC(c2ccc(N)cc2)(C4)C3)cc1`, for which the total growth inhibition concentration (TGI) in [1] is greater than 100 µM; in assay [16] it was 38.5 µM; in [2], greater than 100 µM; in assay [3] it was 78.6 µM; in [4], 61.4 µM; in assay [5], 26.9 µM. The TGI in assay [6] was greater than 100 µM; in [7] it was greater than 100 µM; in assay [8], greater than 100 µM; in [9], greater than 100 µM; in [10], 44.9 µM; in [11], 35.6 µM. The concentration for total growth inhibition (TGI) in [12] is greater than 100 µM; in [13], 51 µM; in assay [14], greater than 100 µM; in assay [15] it was greater than 100 µM.

With `C#Cc1cc(Br)c(OC(=O)C(C)(C)C)c(-c2cc(C#C)cc(Br)c2OC(=O)C(C)(C)C)c1`, the TGI in assay [1] is greater than 100 µM; in assay [2], greater than 100 µM; in assay [3] it was 90.7 µM; in assay [4], 66 µM; in [5], greater than 100 µM; in assay [17] it was greater than 100 µM. Moreover, the TGI in assay [6] was greater than 100 µM; in [7] it was greater than 100 µM; in [8], greater than 100 µM; in assay [9], 73.8 µM; in assay [11], greater than 100 µM; in assay [12], greater than 100 µM. Besides, the concentration for total growth inhibition (TGI) was 30.3 µM in assay [13], greater than 100 µM in [14] and greater than 100 µM in [15].

Regarding `COC(=O)[C@H]1COC(=O)N1`, the total growth inhibition concentration (TGI) in assay [1], in assay [2], in assay [3], in assay [4], in [5] and in assay [6] was greater than 100 µM throughout. Further, the concentration for total growth inhibition (TGI) in assay [7], in [8], in [9], in [10], in assay [11] and in [12] was greater than 100 µM in each case. For the same compound, the concentration for total growth inhibition (TGI) in assay [13], in assay [14] and in [15] was greater than 100 µM each time.

For the compound `CCOC(=O)c1c(C)n(C)c2c1cc(O)c1[nH]c3c(c12)CCCC3`, the TGI in assay [1] was 52.7 µM; in assay [2], 19.4 µM; in assay [4], 65.1 µM; in [5] it was 25.6 µM; in assay [17], 46.6 µM; in assay [6], 60.9 µM. The TGI in [7] is greater than 100 µM; in assay [8], 23.5 µM; in [9], greater than 100 µM; in assay [11], 36.8 µM; in [12] it was 35.8 µM; in [13], 46.7 µM. Moreover, the total growth inhibition concentration (TGI) in assay [14] came out at 31.7 µM; in assay [15], 42.3 µM.

Take `Cc1ccc2c(ccc(/C=C\c3cc(C)c4cccnc4c3O)[n+]2C)c1`: the TGI was 53.4 µM in assay [1]; 25.4 µM in assay [16]; 11.6 µM in assay [3]; greater than 100 µM in assay [4]; 2.98 µM in assay [5]; 35 µM in assay [7]. The TGI worked out at 39 µM in assay [8]; 20.4 µM in assay [9]; 3.98 µM in assay [10]; 68.7 µM in assay [11]; 15 µM in assay [12]; 19.7 µM in assay [13]. The figures for the TGI in assay [14] and in assay [15] were 28.4 µM and greater than 100 µM, respectively.
